What all share (assay): NCI anticancer screen, dose series, 48 h
For assay [1], the system named is A549 NSCLC.
Assay [2] relates to BT-549 breast.
The subject of assay [3] is DU-145 prostate.
The test system of assay [4] is EKVX NSCLC.
The test system of assay [5] is K-562 leukemia.
The test system of assay [6] is SN12C renal.
Assay [7] has as its system U251 CNS.
For assay [8], the system named is UACC-257 melanoma.
The test system of assay [9] is UACC-62 melanoma.
Assay [10] has as its system UO-31 renal.

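These data come from cells grown in 96-well plates and exposed to compound for 48 hours at five concentrations. GI50 = concentration required for 50% inhibition of growth. At the TGI there is no net growth.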

Consider `C=CC1CC12C(=O)C1OC2(C)C2C(=O)c3c(O)ccc(O)c3C(=O)C12` (configuration not stated), for which the GI50 in assay [1] is 8.5 µM; in [2], 10.2 µM; in assay [3], 3.91 µM; in assay [4] it was 7.46 µM; in [5] it was 2.48 µM; in assay [6], 3.2 µM. The GI50 in assay [7] was 4.3 µM; in [8] it was 3.75 µM; in assay [9] it was 2.37 µM; in assay [10] it was 7.83 µM. Moreover, the TGI in assay [1] worked out at 27.2 µM; in [2], 26.3 µM; in assay [3], 13 µM; in [4], 28.2 µM; in assay [5], 6.95 µM; in assay [6] it was 11.6 µM. Also, the TGI in assay [7] was found to be 12.6 µM; in [8], 11.2 µM; in assay [9], 6.31 µM; in [10], 25.6 µM.
Turning to `COc1ccccc1/C=N\N=C(N/N=C/c1ccccc1OC)N/N=C/c1ccccc1OC`, the GI50 was 3.6 µM in assay [1]; 2.88 µM in [2]; 3.92 µM in assay [3]; 2.68 µM in assay [4]; 3.09 µM in assay [5]; 3.35 µM in assay [6]. Also, the GI50 in assay [7] is 2.67 µM; in [8], 3.12 µM; in assay [9], 2.55 µM; in assay [10], 1.81 µM. For the same compound, the TGI was more than 100 µM in assay [1]; 9.83 µM in assay [2]; more than 100 µM in [3]; more than 100 µM in assay [4]; 36.4 µM in assay [5]; 19.7 µM in [6]. Further, the TGI in [7] was determined as 15 µM; in [8] it was 10.2 µM; in assay [9], 7.71 µM; in [10], 7.25 µM.
For the compound `CO[C@@H]1CC(=O)C2(CC(=O)O[C@@H]2/C=C(\C)CCC=C(C)C)C[C@@H]1O` (some centres not stated), the GI50 in [1] is 1.65 µM; in [2], 0.492 µM; in assay [3], 0.577 µM; in assay [4], 1.42 µM; in assay [5], 0.829 µM; in assay [6] it was 0.705 µM. Also, the GI50 is 0.672 µM in assay [7], 0.883 µM in assay [8], 0.812 µM in assay [9] and 1.19 µM in assay [10]. Besides, the TGI in [1] was more than 12.2 µM; in [2], 2.34 µM; in assay [3] it was 1.55 µM; in [4], 4.51 µM; in assay [5], more than 50 µM; in [6] it was 1.64 µM. In addition, the TGI in [7] was 1.4 µM; in assay [8], 2.52 µM; in assay [9], 1.71 µM.
Regarding `CC(=O)O/N=C1/C(c2c(O)[nH]c3cc(Br)ccc23)=Nc2ccccc21`, the GI50 was 1.48 µM in [1]; 1.28 µM in assay [2]; 1.44 µM in assay [3]; 1.37 µM in [4]; 0.553 µM in assay [5]; 0.873 µM in assay [6]. The GI50 in assay [7] is 1.72 µM; in [8] it was 2.26 µM; in assay [9] it was 1.17 µM; in assay [10], 0.653 µM. Moreover, the TGI in assay [1] is 3.47 µM; in assay [2], 3.5 µM; in assay [3], 3.2 µM; in [4], 2.95 µM; in assay [5] it was 3.3 µM; in assay [6], 2.58 µM. For the same compound, the TGI in [7] was determined as 5.63 µM; in assay [8] it was 4.38 µM; in assay [9], 2.75 µM; in assay [10], 2.4 µM.
As to `O=C(O)c1cc2cc(OCc3ccccc3)c(OCc3ccccc3)cc2[nH]1`, the GI50 in [2] was 18.5 µM; in assay [3] it was 32.8 µM; in assay [4], 17.8 µM; in [5] it was 29.3 µM; in assay [6], 33.1 µM; in assay [7], 17.7 µM. The GI50 is 22.2 µM in assay [8], 17.5 µM in assay [9] and 13.8 µM in [10]. Moreover, the TGI in assay [2] was 35.6 µM; in assay [3] it was more than 100 µM; in [4], 38.9 µM; in assay [5], more than 100 µM; in assay [6] it was more than 100 µM; in [7], 37 µM. In addition, the TGI turned out to be 62.9 µM in assay [8], 34.5 µM in assay [9] and 27.6 µM in assay [10].
Consider `O=C(Nc1ccc(Cl)cc1)c1cc(-c2ccc(Cl)cc2)c2sc(=O)[nH]c2n1`, for which the GI50 was 2.49 µM in [1]; 2.08 µM in assay [2]; 3.31 µM in assay [3]; 1.63 µM in [4]; 1.27 µM in assay [5]; 2.12 µM in assay [6]. For the same compound, the GI50 in [7] was 1.88 µM; in [8] it was 1.19 µM; in [9], 1.04 µM; in assay [10], 1.59 µM. Moreover, the TGI is 12.7 µM in assay [1]; 6.88 µM in assay [2]; 26.5 µM in [3]; 11.7 µM in assay [4]; more than 100 µM in assay [5]; 20.1 µM in assay [6]. Besides, the TGI in assay [7] amounted to 11.8 µM; in assay [8], 4.69 µM; in assay [9], 4.91 µM; in assay [10], 5.36 µM.
On to `NS(=O)(=O)c1cccc(N=Cc2c(O)[nH]c3ccccc23)c1`, for which the GI50 in [1], in assay [2], in assay [3], in assay [4], in [5] and in assay [6] was more than 25 µM each time. In addition, the GI50 in assay [7] was more than 25 µM; in [8] it was more than 25 µM; in [9], more than 25 µM; in assay [10], more than 22.7 µM. Further, the TGI in [1], in assay [2], in assay [3], in assay [4], in assay [5] and in assay [6] was more than 25 µM throughout. Moreover, the TGI in assay [7], in [8], in assay [9] and in assay [10] was more than 25 µM in each case.

The record behind these values is PubChem BioAssay (NCI).
